# Experimental data published in patent US20110251379A1, “COMPOUNDS USEFUL FOR TREATING NEURODEGENERATIVE DISORDERS” (Satori Pharmaceuticals, Inc., priority 2010, published 2011).
# Read-outs that look alike come from different tables or passages of the source.
# Legend:
# Type in all cases: cell-based
# Aβ-38 = assay: MSD Human (6E10) Ab 3-PLEX elisa, conditioned media of 2B7 cells: Aβ-38; settings: Aβ-38 (superscript a)
# Summary of the method: (§1)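 2B7 cells, confluent; cpd 5 h, 37° C, 1% DMSO. Media 1:1 blocking buffer, MSD electrochemiluminescence sandwich, o/n 4 degrees C or 2 h RT.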
# Aβ-40 = assay: MSD Human (6E10) Ab 3-PLEX elisa, conditioned media of 2B7 cells: Aβ-40; settings: Aβ-40 (superscript b)
# Summary of the method: as §1
# Aβ-42 = assay: MSD Human (6E10) Ab 3-PLEX elisa, conditioned media of 2B7 cells: Aβ-42; settings: Aβ-42 (superscript c)
# Summary of the method: as §1
# [1] = Homo sapiens, read-out: 50% reduction value
# [2] = Homo sapiens, read-out: IC50 range
Compound,IC50 (Aβ-38; [1]) [nM],IC50 (Aβ-40; read-out: IC50 range) [nM],IC50 (Aβ-40; [1]) [nM],IC50 (Aβ-42; [1]) [nM],IC50 (Aβ-42; [2]) [nM],IC50 (Aβ-38; read-out: 50% reduction value) [nM],IC50 (Aβ-38; [2]) [nM],IC50 (Aβ-40; read-out: 50% reduction value) [nM],IC50 (Aβ-42; read-out: 50% reduction value) [nM],IC50 (Aβ-42; read-out: IC50 range) [nM],IC50 (Aβ-38; read-out: IC50 range) [nM]
CCO[C@@H](C1C[C@@H](C)[C@H]2C(O1)[C@H](O)[C@@]1(C)C3CC[C@H]4C(C)(C)C(OC(=O)NC5CCNC5=O)CC[C@@]45C[C@@]35CC[C@]21C)C(C)(C)O (some centres unmarked) [drawing 1289],< 1000,1000 to 10000,1000 to 10000,< 1000,< 1000,,,,,,
CCO[C@@H](C1C[C@@H](C)[C@H]2C(O1)[C@H](O)[C@@]1(C)C3CC[C@H]4C(C)(C)C(OC(=O)NC5CCNC5=O)CC[C@@]45C[C@@]35CC[C@]21C)C(C)(C)O (some centres unmarked) [drawing 1290],,> 10000,,,,< 1000,< 1000,1000 to 10000,< 1000,< 1000,
CCO[C@@H](C1C[C@@H](C)[C@H]2C(O1)[C@H](O)[C@@]1(C)C3CC[C@H]4C(C)(C)C(OC5CN(Cc6ccccc6)CCO5)CC[C@@]45C[C@@]35CC[C@]21C)C(C)(C)O (some centres unmarked) [drawing 1307],,,,,,,,1000 to 10000,,1000 to 10000,1000 to 10000
